This is an account of results in patent publication US5105020A, “Cycloalkane derivatives” (Imperial Chemistries Industries PLC, priority 1988, dated 1992).

pIC50: −log10 of the molar value.

One experiment concerns cyclooxygenase. As to the kind of experiment: Test b): heparinised human blood, A23187 challenge, TxB2 radioimmunoassay. The class given is cell-based. On the procedure:
(§1) b) An in vitro assay system involving incubating a test compound with heparinised human blood, prior to challenge with the calcium ionophore A23187 and then indirectly measuring the inhibitory effects on 5-LO by assaying the amount of […] using the specific radioimmunoassay described by Carey and Forder (F. Carey and R.A. Forder, Brit. J. Pharmacol. 1985, 84, 34P) which involves the use of a protein-LTB4 conjugate produced using the procedure of Young et alia (Prostaglandins, 1983, 26(4), 605-613). The effects of a test compound on the enzyme cyclooxygenase (which is involved in the alternative metabolic pathway for arachidonic acid and gives rise to prostaglandins, thromboxanes and related metabolites) may be measured at the same time using the specific radioimmunoassay for thromboxane B2 (TxB2) described by Carey and Forder (see above). This test provides an indication of the effects of a test compound against 5-LO and also cyclooxygenase in the presence of blood cells and proteins. It permits the selectivity of the inhibitory effect on 5-LO or cyclooxygenase to be assessed.

The subject of experiment [1] is 5-LO. As to the kind of experiment: Test c): ex vivo assay after oral administration, A23187 challenge of blood, LTB4 radioimmunoassay. Type of experiment: in vivo. On the procedure:
c) An ex vivo assay system, which is a variation of test b) above, involving administration of a test compound (usually orally as the suspension produced when a solution of the test compound in dimethylsulphoxide is added to carboxymethylcellulose), blood collection, heparinisation, challenge with A23187 and radioimmunoassay of LTB4 and TxB2. This test provides an indication of the bioavailability of a test compound as an inhibitor of 5-LO or cyclooxygenase.

Experiment [2] deals with 5-LO. As to the kind of experiment: Test b): heparinised human blood, A23187 challenge, LTB4 radioimmunoassay. Type of experiment: cell-based. The method, then:
as §1

With `CO[C@@H]1CCC[C@]1(OC)c1cccc(OCc2ccc3ccccc3c2)c1` (relative stereo) [trans-1,2-dimethoxy-1-[3-(naphth-2-ylmethoxy)phenyl]cyclopentane], the pIC50 in the experiment on cyclooxygenase was under 4.40; in the experiment with 5-LO [2], 6.70. For the same compound, in the experiment with 5-LO [1], the ED50 is under 100 mg/kg.

One may read the pIC50 as the IC50 on a negative log10 scale, so that one unit is a factor of ten. As a reminder, the ED50 is the midpoint of the dose-response relation. Low values mean an effect at a small dose, high ones a need for a large dose.
